For data set [1] the following is noted: cited from earlier work.
In a further data set the test system is C25cl48 cells. The data set can be described thus: IF cell count cytotoxicity. The format is cell-based, human. Conditions: for Cell count Curve class: IF cell count cytotoxicity, C25cl48 cells.
The subject of data set [2] is HLA-B HiBit (MHC class I). The data set can be described thus: HLA-B HiBit luminescent reporter assay. Conditions: Homo sapiens, 24 h, read-out: HiBit Efficacy. In general terms: The HiBiT peptide binds its large partner to form an active luciferase.
In data set [3] the test system is type I IFN – MHC class I pathway. The data set can be described thus: Average / all assays. Conditions: for IC50: Homo sapiens, read-out: Average IC50. The format is cell-based, human.
The subject of a further data set is HLA-ABC. The data set can be described thus: HLA-ABC immunofluorescence. The format is cell-based, human. As to conditions: Homo sapiens; for Emax: read-out: Immunofluorescence Efficacy; for IC50: read-out: Immunofluorescence IC50.
The test system of another data set is HLA-B mRNA. The data set can be described thus: HLA-B RT-qPCR tertiary assay. The format is cell-based, human. Conditions: Homo sapiens; for Emax: read-out: RT-qPCR Efficacy; for IC50: read-out: RT-qPCR IC50.
Another data set deals with HLA and ISG genes. The data set can be described thus: Multi Gene RT-qPCR, gene panel. The format is cell-based, human. As to conditions: 4.0 ng/ml IFN-β plus 50 uM compound, 24 hrs; for effect on HLA and ISG gene expression (in words): C25cl48 cells.
In a further data set the test system is HLA-B HiBit cells. The data set can be described thus: CellTiter-Glo. As to conditions: for CTG Curve class: cytotoxicity, 4.0 ng/ml IFN-β, 24 hours. For orientation: ATP-based viability assays read luminescence as a measure of living cells.
The conditions of data set [4]: 37.5 and 50 mg b.i.d. ref 43, 44; cited from earlier work.
[5] abbreviates: ( ) - efficacy at highest concentration.

Counter-ions that a name gives are not always drawn. A value given as a limit tells only on which side of the number the result lay.

For the molecule `CS[C@H]1SC[C@H]2C(=O)N(C)[C@@H](C(C)C)C(=O)OC[C@@H](NC(=O)c3cnc4ccccc4n3)C(=O)N[C@@H](C)C(=O)N(C)[C@@H]1C(=O)N(C)[C@@H](C(C)C)C(=O)OC[C@@H](NC(=O)c1cnc3ccccc3n1)C(=O)N[C@@H](C)C(=O)N2C` [Echinomycin, echinomycin], the “adverse effects in Phase I clinical trial” value in [1] is “nausea, vomiting, reversible liver enzyme abnormalities, and allergic reactions”. In addition, in the data set with C25cl48 cells, the “Cell count Curve class” value turned out to be 4. Further, the Emax in data set [2] stood at 100%; in the data set on HLA-ABC, 120%; in the data set on HLA-B mRNA it was 112%. Besides, the IC50 worked out at 6 nM in [3], 4.1 nM in the data set on HLA-ABC and 3 nM in the data set with HLA-B mRNA. Moreover, the hill slope result in data set [3] (concentration-response curves) is reported as “ultrasensitive”. Besides, the “efficacy in reducing all HLA and ISG genes” value with HLA and ISG genes is more than 99%. Besides, the “effect on HLA and ISG gene expression (in words)” value in the data set on HLA and ISG genes was “normalized all genes”. Further, the “CTG Curve class” value in the data set on HLA-B HiBit cells turned out to be 4.
On to `CCN(CC)Cc1ccc2cc(COC(=O)Nc3ccc(C(=O)NO)cc3)ccc2c1` [Givinostat HCl, Givinostat], for which, in the data set on C25cl48 cells (setting [5]), the “Cell count Efficacy at highest concentration” value is “(25) %”. Besides, in the data set with C25cl48 cells, the “Cell count Curve class” value is listed as −3. Moreover, the Emax in data set [2] was 82%; with HLA-ABC it was 100%; in the data set on HLA-B mRNA, 100%. The half-inhibitory concentration (IC50) came out at 1800 nM in data set [3], 260 nM in the data set with HLA-ABC and 4100 nM with HLA-B mRNA. For the same molecule, the “efficacy in reducing all HLA and ISG genes” value with HLA and ISG genes is 70–80%. Besides, in the data set on HLA and ISG genes, the “effect on HLA and ISG gene expression (in words)” value is “normalized HLA-A and -B to DMSO levels”. Further, the “decrease of ISGs (IFIT1, ISG15, MX1)” value in the data set on HLA and ISG genes (compared to IFN-β treated cells) is listed as ~ 90%. The “CTG Efficacy at highest concentration” value in the data set on HLA-B HiBit cells (setting [5]) is on record as “(18) %”. In the data set with HLA-B HiBit cells, the “CTG Curve class” value is recorded as −3. The “safety signal at higher doses” value in [4] is “platelet count decrease”.

Usually IC50 stands for the concentration at which inhibition is half-maximal.
